Source: patent US20120157471A1, “BENZIMIDAZOLE DERIVATIVES” (PFIZER INC., priority 2009, published 2012)
pIC50: −log10 of the molar value.

What was measured:
[1] = target: T1, human Smo (amino acids 181-787) (Homo sapiens, UniProt Q99835); assay: Smo radioligand competition binding assay (displacement of 3H-PF-03451358 from HEK293 membranes); conditions: for inhibition at 0.05 µM: 0.05 μM test compound, displacement of 3H-PF-03451358, read-out: SMO % inh. @ 0.05 μM; for pIC50: radioligand competition binding
T1 construct: expressed in transfected cells; membrane preparation
Procedure: Membranes were prepared from a stable cell line created in HEK293FlpIn-TetR cells (Invitrogen) using FIp recombinase-mediated insertion of the pSecTag-FRT/V5-His vector containing a cDNA encoding amino acids 181-787 of human Smo fused to the murine lgk leader sequence to produce a cell surface expressed Smo 181-781 protein. Hygromycin-resistant clones were obtained and stained for LacZ expression (no expression indicates a correct knock-in of my fusion cDNA). LacZ-negative cells were analyzed for binding tritiated Smo antagonist PF-03451358. For membrane preparation, the HEK293 cells expressing Smo 181-781 were grown to 90% confluence in nine to fifteen 245 mm×245 mm×22 mm dishes, washed with Dulbecco's PBS (15 ml per dish) and harvested via scraping in 10 ml of DPBS. The cells were collected and centrifuged at 1500 rpm (400×g) for 10 min at 4° C. The cell pellets were re-suspended in 40 ml of cold DPBS and washed by centrifugation at 2300 rpm (950×g max) for 10 minutes at 4° C. The supernatant was aspirated and the cell pellet was snap frozen in a methanol/dry ice bath and stored at −70° C. For membrane preparation, 15 ml of Membrane Preparation Buffer (50 mM Tris-HCl pH 7.5, 250 mM sucrose with Roche complete protease cocktail tablets) is added to the tube containing the cell pellet, then cells are rapidly thawed, and homogenized using an Ultra-Turrax T8 (IKA Labortechnik) set on “6” for 15 seconds for 5-6 times in icy water bath. This homogenate was diluted up to 50 ml using Membrane Preparation Buffer and centrifuged at 35,000 rpm in a Beckman Ti45 rotor (140,000×g) for 35 minutes at 4° C. followed by aspiration of the supernatant and re-suspension of the pellet in 5 ml of Assay Buffer (50 mM Tris-HCl pH 7.5, 100 mM NaCl, 25 mM MgCl2, 1 mM EDTA, and 0.1% protease free bovine serum albumin). The re-suspended pellet is then homogenized in a glass tissue grinder. The re-suspended membranes are aliquoted (0.5 ml aliquots), snap frozen and stored at −70° C. Total protein in the membrane preparation is determined using the Pierce BCA protein assay (Pierce Chemical).
For the binding competition assay, 100 μl of Assay Buffer is added to all the wells of a 96 well GF/B filter plate (Millipore MultiScreen-HTS-FB cat# MSFBN6B50) for 10 minutes to pre-wet the filter prior to evacuation of the buffer (8 inches Hg for 8 seconds). To the pre-wet wells is added: 20 μl of Assay Buffer, 10 μl diluted test agent, 20 μl of ^3H-PF-3451358 (15 nM stock solution), and 50 μl of membrane preparation (40 μg total protein per well). The plates are sealed and mixed at room temperature for 5 min, incubated at room temperature for 2 hours, then washed 5 times with 100 μl/each of wash buffer and vacuum dried for 8 seconds at 8 inch Hg. The plate is then dried for one hour in a 60° C. oven prior to the addition of 45 μl of Microscint 20 (Packard, #6013621) to each well and incubation at RT for 30 minutes to 1 hour. The plate is counted in a TopCount scintillation counter (Perkin Elmer).
Data analysis uses Excel for % Inhibition and Graphpad Prism for IC50 calculation. Total binding (TB, in the absence of inhibitors)=average of ^3H PF-03451358 3 nM+SMO membrane (40 μg/wells (approx 5000-7000 CPM). Non-specific binding (NSB)=average of ^3H PF-03451358 (3 nM)+cold PF-03451358 (30 μM)+SMO membrane (approx 600-1200 CPM). Specific binding (SB)=(total binding−non-specific binding). % Inhibition=[1−(compound Specific binding/control Specific binding)]×100%. IC50 is calculated by fitting the data to the four parameter sigmoidal dose-response curve (variable slope) Y=Bottom+(Top-Bottom)/(1+10̂((LogEC50−X)*HillSlope)). X is the logarithm of the inhibitor concentration. Y is the response; Y starts at Bottom and goes to Top with a sigmoid shape.

Gli-Luc/MEF cells (Smo) = assay: Gli-Luc/MEF assay (Shh-stimulated luciferase reporter under the Gli response element); format: cell-based, mouse; conditions: Mus musculus, MEF, 48 h
Procedure: The Gli-Luc/MEF cells obtained from Gli-Luc transgenic mice (Pfizer CoE, Genetically Modified Mice) contain a luciferase reporter gene under the control of the Gli response element. Luciferase activity stimulated with Sonic hedgehog ligand was inhibited by Smo inhibitors, and IC50 was subsequently calculated.
Plates were incubated at 37° C. and 5% CO2 overnight. On day two, cells were dosed with test compounds at a final concentration ranging from […] to 50 μM at a 3-time series dilution. Immediately after dosing cells with compounds, recombinant mouse sonic hedgehog (Shh, R&D Systems 464-SH) was added to a final concentration of 2 μg/mL. The cells were incubated with compounds and Shh for 48 hours at 37° C. and 5% CO2. Luciferase assays were conducted on Day 4 using the Bright-Glo Luciferase assay system (Promega E2620) according to Promega's protocol. Briefly, Bright-Glo luciferase reagent was made up and 25 uL were added to each well of the 384-well plate containing media. Plates were kept at room temperature for 5 minutes, and then read on an Envision Luminescence plate reader (Perkin-Elmer). IC50 of the inhibition was calculated by using GraphPad Prism.

T1 sequence (Q99835 181-787): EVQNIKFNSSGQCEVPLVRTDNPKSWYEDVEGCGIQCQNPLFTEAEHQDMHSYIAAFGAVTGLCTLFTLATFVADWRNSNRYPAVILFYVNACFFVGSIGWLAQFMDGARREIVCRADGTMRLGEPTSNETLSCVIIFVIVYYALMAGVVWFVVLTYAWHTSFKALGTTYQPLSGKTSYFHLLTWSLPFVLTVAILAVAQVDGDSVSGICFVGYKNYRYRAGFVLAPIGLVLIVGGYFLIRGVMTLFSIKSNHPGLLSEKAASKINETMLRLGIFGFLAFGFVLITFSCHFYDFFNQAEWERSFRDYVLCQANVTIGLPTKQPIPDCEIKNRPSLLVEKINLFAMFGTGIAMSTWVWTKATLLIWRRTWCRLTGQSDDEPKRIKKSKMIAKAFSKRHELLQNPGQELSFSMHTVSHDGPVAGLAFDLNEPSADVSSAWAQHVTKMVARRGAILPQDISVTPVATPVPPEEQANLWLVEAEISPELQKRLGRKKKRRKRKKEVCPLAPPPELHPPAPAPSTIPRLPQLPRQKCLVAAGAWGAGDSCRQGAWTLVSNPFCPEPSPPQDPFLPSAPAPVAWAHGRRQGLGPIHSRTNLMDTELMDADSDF

Compound	inhibition at 0.05 µM [1] [%]	pIC50 [1]	pIC50 (Gli-Luc/MEF cells (Smo))
COC(=O)N(C)C1CCN(c2cc(-c3nc4ccccc4n3C)c(Cl)cn2)C1 (stereo not shown) [Example A-178, methyl {1-[5-chloro-4-(1-methyl-1H-benzimidazol-2-yl)pyridin-2-yl]pyrrolidin-3-yl}methylcarbamate]	92	7.37	7.77
CCn1nnnc1C1CN(c2cc(-c3nc4ccccc4n3C)c(Cl)cn2)CCO1 (stereo not shown) [Example A-71, 2-{5-chloro-2-[2-(1-ethyl-1H-tetrazol-5-yl)morpholin-4-yl]pyridin-4-yl}-1-methyl-1H-benzimidazole]	94	7.74	8.00
Cn1c(-c2cc(N3C[C@@H](O)[C@@H](O)C3)ncc2Cl)nc2ccccc21 [Example A-129, (3R,4S)-1-[5-chloro-4-(1-methyl-1H-benzimidazol-2-yl)pyridin-2-yl]pyrrolidine-3,4-diol]	53		6.98
Cn1c(-c2cc(N3CCC(S(C)(=O)=O)CC3)ncc2Cl)nc2ccccc21 [Example A-20, 2-{5-chloro-2-[4-(methylsulfonyl)piperidin-1-yl]pyridin-4-yl}-1-methyl-1H-benzimidazole]	87	7.72	8.10
Cn1c(-c2cc(NCCO)ncc2Cl)nc2ccccc21 [Example A-172, 2-{[5-chloro-4-(1-methyl-1H-benzimidazol-2-yl)pyridin-2-yl]amino}ethanol]	80	6.97	7.28
CC(=O)NC1CCN(c2cc(-c3nc4ccccc4n3C)c(Cl)cn2)C1 (stereo in doubt) [Example A-116, N-{(3R)-1-[5-chloro-4-(1-methyl-1H-benzimidazol-2-yl)pyridin-2-yl]pyrrolidin-3-yl}acetamide]	68		7.07
Cn1c(-c2cc(N3CCNC(=O)CC3)ncc2Cl)nc2ccccc21 [Example A-33, 1-[5-chloro-4-(1-methyl-1H-benzimidazol-2-yl)pyridin-2-yl]-1,4-diazepan-5-one]	98	8.05	8.10
Cn1c(-c2cc(N3C[C@](C)(CO)[C@](C)(CO)C3)ncc2Cl)nc2ccccc21 [Example A-108, {(3R,4S)-1-[5-chloro-4-(1-methyl-1H-benzimidazol-2-yl)pyridin-2-yl]-3,4-dimethylpyrrolidine-3,4-diyl}dimethanol]	76	6.96	7.23
Cn1c(-c2cc(N3CCOCC(CO)C3)ncc2Cl)nc2ccccc21 (stereo not shown) [Example A-47, {4-[5-chloro-4-(1-methyl-1H-benzimidazol-2-yl)pyridin-2-yl]-1,4-oxazepan-6-yl}methanol]	101	8.05	8.15
CNC(=O)N1CCN(c2cc(-c3nc4ccccc4n3C)c(Cl)cn2)CC1 [Example A-3, 4-[5-chloro-4-(1-methyl-1H-benzimidazol-2-yl)pyridin-2-yl]-N-methylpiperazine-1-carboxamide]	93	7.85	8.05
Cn1c(-c2cc(N3CCC(C(=O)N4CCOCC4)CC3)ncc2Cl)nc2ccccc21 [Example A-80, 2-{5-chloro-2-[4-(morpholin-4-ylcarbonyl)piperidin-1-yl]pyridin-4-yl}-1-methyl-1H-benzimidazole]	92	7.35	8.10
CC(=O)NC1CCN(c2cc(-c3nc4ccccc4n3C)c(F)cn2)CC1 [Example D-14, N-{1-[5-fluoro-4-(1-methyl-1H-benzimidazol-2-yl)pyridin-2-yl]piperidin-4-yl}acetamide]	97	7.72	7.76
Cn1c(-c2nc(N3CCN(C(=O)CO)CC3)ncc2Cl)nc2ccccc21 [Example C-18, 2-{4-[5-chloro-4-(1-methyl-1H-benzimidazol-2-yl)pyrimidin-2-yl]piperazin-1-yl}-2-oxoethanol]	98	7.82	7.44
Cn1c(-c2cc(N3CC[C@@H](O)[C@H](O)C3)ncc2Cl)nc2ccccc21 [Example A-63, (3R,4R)-1-[5-chloro-4-(1-methyl-1H-benzimidazol-2-yl)pyridin-2-yl]piperidine-3,4-diol]	95	7.60	7.74
Cn1c(-c2nc(N3CCC(O)CC3)ccc2Cl)nc2ccccc21 [Example B-6, 1-[5-chloro-6-(1-methyl-1H-benzimidazol-2-yl)pyridin-2-yl]piperidin-4-ol]	95	8.00	7.92
Cn1c(-c2cc(N3CCN(S(C)(=O)=O)CC3)ncc2Cl)nc2ccccc21 [Example A-4, 2-{5-chloro-2-[4-(methylsulfonyl)piperazin-1-yl]pyridin-4-yl}-1-methyl-1H-benzimidazole]	91	7.53	8.52
COC(=O)NC1CN(c2cc(-c3nc4ccccc4n3C)c(Cl)cn2)C1 [Example A-44]	89	7.23	7.66
Cn1c(-c2cc(N3CCOCC(Cc4ncccn4)C3)ncc2Cl)nc2ccccc21 (stereo not shown) [Example A-112, 2-{5-chloro-2-[6-(pyrimidin-2-ylmethyl)-1,4-oxazepan-4-yl]pyridin-4-yl}-1-methyl-1H-benzimidazole]	72	6.80	6.94
CNS(=O)(=O)C1CCN(c2cc(-c3nc4ccccc4n3C)c(Cl)cn2)C1 (stereo not shown) [Example A-104, 1-[5-chloro-4-(1-methyl-1H-benzimidazol-2-yl)pyridin-2-yl]-N-methylpyrrolidine-3-sulfonamide]	80	7.43	7.64
COCCS(=O)(=O)NC1CN(c2cc(-c3nc4ccccc4n3C)c(Cl)cn2)C1 [Example A-195, N-{1-[5-chloro-4-(1-methyl-1H-benzimidazol-2-yl)pyridin-2-yl]azetidin-3-yl}-2-methoxyethanesulfonamide]	101	8.02	8.31
CC(=O)N1CCCN(c2cc(-c3nc4ccccc4n3C)c(Cl)cn2)CC1 [Example A-50, 2-[2-(4-acetyl-1,4-diazepan-1-yl)-5-chloropyridin-4-yl]-1-methyl-1H-benzimidazole]	100	8.15	8.40
